Experimental data taken from patent US20040176349A1, “Antibacterial composition” (priority 2001, published 2004).

Legend:
[1] = system: E. hirae ATCC 10541; experiment: MIC, microbroth dilution (NCCLS), Table 1; assay type: cell-based; settings: Enterococcus hirae, ATCC10541
Method: (§1) The minimum inhibitory concentration (MIC) of the compounds was determined using the microbroth dilution technique in accordance with NCCLS guidelines, employing Mueller-Hinton broth (National Committee for Clinical Laboratory Standards, NCCLS, 1995 “Methods for dilution antimicrobial susceptibility tests for bacteria that grow aerobically”—approved standard M7-A5).
(§2) The compounds were tested in isolation, at different concentrations.

[2] = system: E. faecalis SFZ; experiment: MIC, microbroth dilution (NCCLS), Table 1; assay type: cell-based; settings: Enterococcus faecalis
Method: as §1, §2

[3] = system: E. faecalis NCTC 5957; experiment: MIC, microbroth dilution (NCCLS), Table 1; assay type: cell-based; settings: Enterococcus faecalis, NCTC5957
Method: as §1, §2

[4] = system: E. faecalis Phillips; experiment: MIC, microbroth dilution (NCCLS), Table 1; assay type: cell-based; settings: Enterococcus faecalis
Method: as §1, §2

[5] = system: E. faecalis 24592; experiment: MIC, microbroth dilution (NCCLS), Table 1; assay type: cell-based; settings: Enterococcus faecalis, 24592
Method: as §1, §2

[6] = system: E. faecium NCTC 7171; experiment: MIC, microbroth dilution (NCCLS), Table 1; assay type: cell-based; settings: Enterococcus faecium, NCTC7171
Method: as §1, §2

[7] = system: VRE 300 1590; experiment: MIC, microbroth dilution (NCCLS), Table 1; assay type: cell-based, Enterococcus; settings: Enterococcus, VRE
Method: as §1, §2

[8] = system: VRE 300 1562; experiment: MIC, microbroth dilution (NCCLS), Table 1; assay type: cell-based, Enterococcus; settings: Enterococcus, VRE
Method: as §1, §2

[9] = system: VRE 300 2043; experiment: MIC, microbroth dilution (NCCLS), Table 1; assay type: cell-based, Enterococcus; settings: Enterococcus, VRE
Method: as §1, §2

[10] = system: VRE 1662; experiment: MIC, microbroth dilution (NCCLS), Table 1; assay type: cell-based, Enterococcus; settings: Enterococcus, VRE
Method: as §1, §2

[11] = system: enterococci; experiment: Checkerboard study, synergy summary of Example 2; assay type: cell-based, Enterococcus; settings: in words
Source text: (§3) The aim of the study was to detect any synergy between PFOB and the other antibiotics. For the purposes of the study, synergy was defined in accordance with the FIC (fractional inhibitory concentration) index, as disclosed by Lorian (1991, In “Antibiotics in Laboratory Medicine” 3rd edition, Eds. Williams & Wilkins; esp. p 434-443). In essence, if the combination of test compounds gives at least a 4-fold reduction in the FIC value for each compound, then a synergy may be considered to exist (i.e. FIC of the combination <0.5=synergy; FIC 0.5-2.0=“indifference”; and FIC >2=antagonism).

[12] = system: Enterococcus strains; experiment: MIC against Enterococcus strains, summary of Example 1; assay type: cell-based; settings: in words
Method: as §1, §2

[13] = system: E. faecalis ATCC 10541; experiment: Checkerboard microdilution MIC with PFOB, Table 2; assay type: cell-based
Source text: The aim of the study was to detect any synergy between PFOB and the other antibiotics. For the purposes of the study, synergy was defined in accordance with the FIC (fractional inhibitory concentration) index, as disclosed by Lorian (1991, In “Antibiotics in Laboratory Medicine” 3rd edition, Eds. Williams & Wilkins; esp. p 434-443).

[14] = system: E. faecalis ATCC 29212; experiment: Checkerboard microdilution MIC with PFOB, Table 2; assay type: cell-based
Source text: as §3
(§4) In Table 2, results in the checkerboard indicating synergy are hatched, and specific optimum synergistic combinations are boxed.

[15] = system: E. faecalis 5659 (vanA); experiment: Checkerboard microdilution MIC with PFOB, Table 2; assay type: cell-based
Source text: as §3, §4

[16] = system: E.faecalis 78097 (van B); experiment: Checkerboard microdilution MIC with PFOB, Table 2; assay type: cell-based
Source text: as §3, §4

[17] = Enterococcus faecalis, read-out: MIC (alone) of Partner

O=C(O)[C@H]1/C(=C/CO)O[C@@H]2CC(=O)N21 [CA, clavulanic acid]
MIC [1]: > 128 µg/mL | MIC [2]: > 128 µg/mL | MIC [3]: > 128 µg/mL | MIC [4]: > 128 µg/mL | MIC [5]: > 128 µg/mL | MIC [6]: > 128 µg/mL | MIC [7]: > 128 µg/mL | MIC [8]: > 128 µg/mL | MIC [9]: > 128 µg/mL | MIC [10]: > 128 µg/mL | synergy with PFOB [11]: No synergy | effect on the MIC of CAZ ([12]; clavulanic acid added at 4 mg/L): no significant effect | activity in isolation against the Enterococcus strains tested ([12]; compound alone, all strains of Table 1): inactive | MIC of partner antibiotic in the presence of PFOB at 0.5 mg/L ([13]; E. faecalis ATCC 10541, PFOB 0.5 mg/L): >64 µg/mL | MIC of partner antibiotic in the presence of PFOB at 1 mg/L ([13]; E. faecalis ATCC 10541, PFOB 1 mg/L): >64 µg/mL | MIC of partner antibiotic in the presence of PFOB at 2 mg/L ([13]; E. faecalis ATCC 10541, PFOB 2 mg/L): >64 µg/mL | MIC of partner antibiotic in the presence of PFOB at 4 mg/L ([13]; E. faecalis ATCC 10541, PFOB 4 mg/L): >64 µg/mL | MIC of partner antibiotic in the presence of PFOB at 8 mg/L ([13]; E. faecalis ATCC 10541, PFOB 8 mg/L): >64 µg/mL | MIC of partner antibiotic in the presence of PFOB at 16 mg/L ([13]; E. faecalis ATCC 10541, PFOB 16 mg/L): >64 µg/mL | MIC of partner antibiotic in the presence of PFOB at 32 mg/L ([13]; E. faecalis ATCC 10541, PFOB 32 mg/L): >64 µg/mL | MIC ([13]; Enterococcus faecalis, ATCC10541, read-out: MIC (alone) of Partner): > 64 µg/mL | MIC of partner antibiotic in the presence of PFOB at 0.5 mg/L ([14]; E. faecalis ATCC 29212, PFOB 0.5 mg/L): >64 µg/mL | MIC of partner antibiotic in the presence of PFOB at 1 mg/L ([14]; E. faecalis ATCC 29212, PFOB 1 mg/L): >64 µg/mL | MIC of partner antibiotic in the presence of PFOB at 2 mg/L ([14]; E. faecalis ATCC 29212, PFOB 2 mg/L): >64 µg/mL | MIC of partner antibiotic in the presence of PFOB at 4 mg/L ([14]; E. faecalis ATCC 29212, PFOB 4 mg/L): >64 µg/mL | MIC of partner antibiotic in the presence of PFOB at 8 mg/L ([14]; E. faecalis ATCC 29212, PFOB 8 mg/L): >64 µg/mL | MIC of partner antibiotic in the presence of PFOB at 16 mg/L ([14]; E. faecalis ATCC 29212, PFOB 16 mg/L): >64 µg/mL | MIC of partner antibiotic in the presence of PFOB at 32 mg/L ([14]; E. faecalis ATCC 29212, PFOB 32 mg/L): >64 µg/mL | MIC ([14]; Enterococcus faecalis, ATCC29212, read-out: MIC (alone) of Partner): > 64 µg/mL | MIC of partner antibiotic in the presence of PFOB at 0.5 mg/L ([15]; E. faecalis 5659 (vanA), PFOB 0.5 mg/L): >64 µg/mL | MIC of partner antibiotic in the presence of PFOB at 1 mg/L ([15]; E. faecalis 5659 (vanA), PFOB 1 mg/L): >64 µg/mL | MIC of partner antibiotic in the presence of PFOB at 2 mg/L ([15]; E. faecalis 5659 (vanA), PFOB 2 mg/L): >64 µg/mL | MIC of partner antibiotic in the presence of PFOB at 4 mg/L ([15]; E. faecalis 5659 (vanA), PFOB 4 mg/L): >64 µg/mL | MIC of partner antibiotic in the presence of PFOB at 8 mg/L ([15]; E. faecalis 5659 (vanA), PFOB 8 mg/L): >64 µg/mL | MIC of partner antibiotic in the presence of PFOB at 16 mg/L ([15]; E. faecalis 5659 (vanA), PFOB 16 mg/L): >64 µg/mL | MIC of partner antibiotic in the presence of PFOB at 32 mg/L ([15]; E. faecalis 5659 (vanA), PFOB 32 mg/L): >64 µg/mL | MIC [15, 17]: > 64 µg/mL | MIC of partner antibiotic in the presence of PFOB at 0.5 mg/L ([16]; E.faecalis 78097 (van B), PFOB 0.5 mg/L): >64 µg/mL | MIC of partner antibiotic in the presence of PFOB at 1 mg/L ([16]; E.faecalis 78097 (van B), PFOB 1 mg/L): >64 µg/mL | MIC of partner antibiotic in the presence of PFOB at 2 mg/L ([16]; E.faecalis 78097 (van B), PFOB 2 mg/L): >64 µg/mL | MIC of partner antibiotic in the presence of PFOB at 4 mg/L ([16]; E.faecalis 78097 (van B), PFOB 4 mg/L): >64 µg/mL | MIC of partner antibiotic in the presence of PFOB at 8 mg/L ([16]; E.faecalis 78097 (van B), PFOB 8 mg/L): >64 µg/mL | MIC of partner antibiotic in the presence of PFOB at 16 mg/L ([16]; E.faecalis 78097 (van B), PFOB 16 mg/L): >64 µg/mL | MIC of partner antibiotic in the presence of PFOB at 32 mg/L ([16]; E.faecalis 78097 (van B), PFOB 32 mg/L): >64 µg/mL | MIC [16, 17]: > 64 µg/mL
